Values quoted from earlier work as cited in patent US11426350B1, “Reducing the environmental impact of farming using biochar” (Carbon Technology Holdings, LLC, priority 2014, dated 2022).

Tested on: E. coli O157:H7

Lactobacillus rhamnosus GG
E. coli O157:H7-induced lesions in Caco-2 cells: prevent
